Broadly, the Ki is a dissociation constant, usually derived from enzyme kinetics or from competition with a known ligand.

The structures appear in SMILES notation.

Common to all, as to experiment: In vitro MMP inhibition, Ki determination (fluorogenic substrate II)
Holding throughout (format): biochemical
What all share (conditions): value in parentheses

The target in one experiment is T1, Human recombinant MMP-9 (Homo sapiens, UniProt P14780).
T1 construct: made in house; host or cells: MMP-9-transfected HT1080 cells (spent media)
T1 sequence (P14780 107-707 limits assumed): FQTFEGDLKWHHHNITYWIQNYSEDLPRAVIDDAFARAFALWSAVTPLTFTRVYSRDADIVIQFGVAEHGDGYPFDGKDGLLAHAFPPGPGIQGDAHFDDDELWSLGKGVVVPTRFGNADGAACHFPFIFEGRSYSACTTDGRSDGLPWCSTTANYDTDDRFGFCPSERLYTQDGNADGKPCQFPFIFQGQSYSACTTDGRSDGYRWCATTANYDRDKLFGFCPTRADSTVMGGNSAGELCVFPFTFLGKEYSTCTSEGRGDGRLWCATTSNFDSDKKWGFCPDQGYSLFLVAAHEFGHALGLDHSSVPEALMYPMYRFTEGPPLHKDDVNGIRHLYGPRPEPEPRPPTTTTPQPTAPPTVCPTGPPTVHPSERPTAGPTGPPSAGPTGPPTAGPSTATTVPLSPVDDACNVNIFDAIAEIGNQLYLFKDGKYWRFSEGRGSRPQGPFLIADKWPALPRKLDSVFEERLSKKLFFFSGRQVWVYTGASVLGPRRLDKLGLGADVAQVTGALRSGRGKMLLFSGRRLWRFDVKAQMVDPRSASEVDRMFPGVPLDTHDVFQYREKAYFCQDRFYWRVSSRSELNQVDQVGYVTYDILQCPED
A digest of the protocol: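 MMP-9 proenzyme purified from transfected HT1080 cell media, activated with APMA, trypsin or recombinant MMP-3; hydroxamates diluted in pH 7.5 Tris/NaCl/CaCl2 buffer. Cleavage of 4 μM MCA/Dpa substrate II followed by fluorescence (ex 330/em 420 nm), 1 h at room temperature. Ki from Morrison-equation fit, substrate at/below Km, uncorrected.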

The target in the next experiment is T2, Human recombinant MMP-1 (Homo sapiens, UniProt P03956).
T2 construct: made in house; host or cells: MMP-1-transfected HT-1080 cells (spent media)
T2 sequence (P03956 100-469): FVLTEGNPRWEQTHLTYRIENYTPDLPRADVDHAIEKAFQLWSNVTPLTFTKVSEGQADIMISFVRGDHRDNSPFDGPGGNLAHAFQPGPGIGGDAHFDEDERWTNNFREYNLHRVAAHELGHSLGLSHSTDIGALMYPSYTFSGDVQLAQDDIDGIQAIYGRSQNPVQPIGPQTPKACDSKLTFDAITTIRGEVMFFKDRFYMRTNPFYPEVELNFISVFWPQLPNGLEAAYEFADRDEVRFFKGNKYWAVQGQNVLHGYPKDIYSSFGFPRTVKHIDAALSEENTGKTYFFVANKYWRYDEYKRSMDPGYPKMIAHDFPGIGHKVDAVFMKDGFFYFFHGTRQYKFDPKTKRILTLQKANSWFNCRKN
The procedure, abridged: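 Activated human recombinant MMP-1 (APMA- or trypsin-activated; proenzyme from transfected HT-1080 cells) incubated 1 hr at room temperature with 4 μM MCA/Dpa fluorogenic substrate II at or below Km in Tris buffer pH 7.5 with CaCl2. Fluorescence ex 330/em 420 nm; Ki from Morrison-equation non-linear regression, uncorrected for substrate.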

The next experiment concerns the target T3, Human recombinant MMP-14 (Homo sapiens, UniProt P50281).
T3 construct: The catalytic domain enzyme was expressed in E. coli inclusion bodies, solubilized in urea; made in house
A digest of the protocol:
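Refolded E. coli-expressed MMP-14 catalytic domain, APMA- or trypsin-activated, incubated 1 h at room temperature with 4 μM fluorogenic substrate II in pH 7.5 Tris/NaCl/CaCl2 buffer; fluorescence read at 330/420 nm. Ki from Morrison-equation non-linear regression, substrate at or below Km, uncorrected for substrate.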

Turning to `COCCN1CCC(C(=O)NO)(S(=O)(=O)c2ccc(OCCCc3cccc(-c4ccccc4F)c3)cc2)CC1` [Example 512], the inhibition constant (Ki) was 0.0257 µM at Human recombinant MMP-9, > 10 µM at Human recombinant MMP-1 and > 10 µM on Human recombinant MMP-14.

For the compound `COCCN1CCC(C(=O)NO)(S(=O)(=O)c2ccc(OCCCc3cccc(-c4ccc(F)cc4F)c3)cc2)CC1` [Example 513], the inhibition constant (Ki) is 0.255 µM at Human recombinant MMP-9, > 10 µM at Human recombinant MMP-1 and 9.27 µM on Human recombinant MMP-14.

Turning to `COCCN1CCC(C(=O)NO)(S(=O)(=O)c2ccc(OCCCc3cccc(-c4ccc(C#N)cc4)c3)cc2)CC1` [Example 514], the inhibitory constant (Ki) is 0.224 µM on Human recombinant MMP-9, > 10 µM at Human recombinant MMP-1 and 4.08 µM on Human recombinant MMP-14.

Take `CCN1CCC(C(=O)NO)(S(=O)(=O)c2ccc(OCCCc3cccc(-c4ccc(Cl)cc4)c3)cc2)CC1` [Example 526]: the results for the inhibition constant (Ki) at Human recombinant MMP-9, at Human recombinant MMP-1 and on Human recombinant MMP-14 were 2.07 µM, > 10 µM and > 10 µM, respectively.

Turning to `Cc1ccc(NC(=O)CCCOc2ccc(S(=O)(=O)C3(C(=O)NO)CCOCC3)cc2)cc1I` [Example 527], the inhibition constant (Ki) at Human recombinant MMP-9 is 0.0304 µM; at Human recombinant MMP-1, 5.1 µM; on Human recombinant MMP-14, 1.36 µM.

`CCC(=O)c1cccc(CCCOc2ccc(S(=O)(=O)C3(C(=O)NO)CCOCC3)cc2)c1` [Example 528]: the Ki on Human recombinant MMP-9 is 0.238 µM; on Human recombinant MMP-1, > 10 µM; at Human recombinant MMP-14 it was 5.7 µM.

Take `O=C(NO)C1(S(=O)(=O)c2ccc(OCCCc3cccc(-c4ccc(O)cc4)c3)cc2)CCOCC1` [Example 529]: the Ki is 1.87 µM at Human recombinant MMP-9, > 10 µM at Human recombinant MMP-1 and > 10 µM on Human recombinant MMP-14.

As for `O=C(NO)C1(S(=O)(=O)c2ccc(OCCCc3cccc(-c4cccc(O)c4)c3)cc2)CCOCC1` [Example 530], the values for the Ki at Human recombinant MMP-9, at Human recombinant MMP-1 and at Human recombinant MMP-14 were 0.22 µM, > 10 µM and > 10 µM, respectively.

Turning to `O=C(NO)C1(S(=O)(=O)c2ccc(OCCc3ccc(-c4ccc(O)cc4)cc3)cc2)CCOCC1` [Example 531], the inhibition constant Ki is 0.774 µM at Human recombinant MMP-9, > 10 µM at Human recombinant MMP-1 and > 10 µM on Human recombinant MMP-14.

Regarding `O=C(NO)C1(S(=O)(=O)c2ccc(OCCc3ccc(-c4cccc(O)c4)cc3)cc2)CCOCC1` [Example 532], the values for the Ki on Human recombinant MMP-9, on Human recombinant MMP-1 and at Human recombinant MMP-14 were 1.32 µM, > 10 µM and > 10 µM, respectively.

On to `CCCCc1ccc(CCCOc2ccc(S(=O)(=O)C3(C(=O)NO)CCOCC3)cc2)cn1` [Example 533], for which the inhibition constant (Ki) on Human recombinant MMP-9 was 0.141 µM; at Human recombinant MMP-1, > 10 µM; on Human recombinant MMP-14 it was 6.68 µM.

Regarding `CCCc1ccc(CCCOc2ccc(S(=O)(=O)C3(C(=O)NO)CCOCC3)cc2)cn1` [Example 534], the figures for the inhibition constant Ki on Human recombinant MMP-9, at Human recombinant MMP-1 and at Human recombinant MMP-14 were 0.324 µM, > 10 µM and 6.81 µM, respectively.

As for `CCc1ccc(CCCOc2ccc(S(=O)(=O)C3(C(=O)NO)CCOCC3)cc2)cn1` [Example 535], the Ki on Human recombinant MMP-9 is 0.128 µM; on Human recombinant MMP-1, > 10 µM; at Human recombinant MMP-14 it was 3.87 µM.

Consider `CN1CCC(C(=O)NO)(S(=O)(=O)c2ccc(SCCNC(=O)c3cc4ccccc4o3)cc2)CC1` [Example 536], for which the inhibition constant Ki on Human recombinant MMP-9 is 3.4 µM; on Human recombinant MMP-1, > 10 µM; at Human recombinant MMP-14, > 10 µM.

Consider `COCCN1CCC(C(=O)NO)(S(=O)(=O)c2ccc(OCCc3cccc(-c4ccncc4)c3)cc2)CC1` [Example 538], for which the figures for the Ki at Human recombinant MMP-9, at Human recombinant MMP-1 and on Human recombinant MMP-14 were 0.117 µM, > 10 µM and 1.7 µM, respectively.

Consider `COCCN1CCC(C(=O)NO)(S(=O)(=O)c2ccc(OCCc3cccc(-c4cccnc4)c3)cc2)CC1` [Example 539], for which the Ki on Human recombinant MMP-9 came to 0.0855 µM; on Human recombinant MMP-1 it was 9.13 µM; at Human recombinant MMP-14, 1.18 µM.

On to `COCCN1CCC(C(=O)NO)(S(=O)(=O)c2ccc(OCCc3cccc(-c4ccccc4F)c3)cc2)CC1` [Example 540], for which the Ki is 0.689 µM at Human recombinant MMP-9, > 10 µM at Human recombinant MMP-1 and > 10 µM on Human recombinant MMP-14.

`O=C(NCCSc1ccc(S(=O)(=O)C2(C(=O)NO)CCN(C3CC3)CC2)cc1)c1nc2ccccc2s1` [Example 541]: the Ki on Human recombinant MMP-9 is 0.269 µM; on Human recombinant MMP-1, > 10 µM; at Human recombinant MMP-14, > 10 µM.

On to `O=C(NCCSc1ccc(S(=O)(=O)C2(C(=O)NO)CCN(C3CC3)CC2)cc1)c1cc2ccccc2o1` [Example 542], for which the Ki at Human recombinant MMP-9 is 0.922 µM; on Human recombinant MMP-1, > 10 µM; at Human recombinant MMP-14, > 10 µM.

For `COCCN1CCC(C(=O)NO)(S(=O)(=O)c2ccc(OCCc3ccc(-c4ccc(C#N)cc4)cc3)cc2)CC1` [Example 543], the results for the inhibition constant Ki at Human recombinant MMP-9, at Human recombinant MMP-1 and at Human recombinant MMP-14 were 0.207 µM, > 10 µM and 3.09 µM, respectively.

Turning to `COCCN1CCC(C(=O)NO)(S(=O)(=O)c2ccc(OCCc3cccc(-c4ccc(F)cc4)c3)cc2)CC1` [Example 544], the Ki on Human recombinant MMP-9 was 0.787 µM; at Human recombinant MMP-1 it was > 10 µM; at Human recombinant MMP-14 it was > 10 µM.

As for `COCCN1CCC(C(=O)NO)(S(=O)(=O)c2ccc(OCCc3cccc(-c4cccc(F)c4)c3)cc2)CC1` [Example 545], the inhibition constant (Ki) was 0.923 µM on Human recombinant MMP-9, > 10 µM on Human recombinant MMP-1 and > 10 µM at Human recombinant MMP-14.

For the compound `COCCN1CCC(C(=O)NO)(S(=O)(=O)c2ccc(OCCc3cccc(-c4ccc(F)cc4F)c3)cc2)CC1` [Example 546], the inhibitory constant (Ki) on Human recombinant MMP-9 was 1.27 µM; at Human recombinant MMP-1 it was > 10 µM; on Human recombinant MMP-14, > 10 µM.

`COCCN1CCC(C(=O)NO)(S(=O)(=O)c2ccc(OCCc3cccc(-c4ccc(Cl)cc4)c3)cc2)CC1` [Example 547]: the figures for the inhibitory constant (Ki) on Human recombinant MMP-9, at Human recombinant MMP-1 and on Human recombinant MMP-14 were 1.86 µM, > 10 µM and > 10 µM, respectively.

Consider `COCCN1CCC(C(=O)NO)(S(=O)(=O)c2ccc(OCCc3cccc(-c4ccccn4)c3)cc2)CC1` [Example 548], for which the inhibition constant Ki on Human recombinant MMP-9 is 0.279 µM; at Human recombinant MMP-1 it was > 10 µM; at Human recombinant MMP-14, 7.42 µM.

Turning to `COCCN1CCC(C(=O)NO)(S(=O)(=O)c2ccc(OCCc3cccc(-c4ccc(F)c(F)c4)c3)cc2)CC1` [Example 549], the figures for the Ki at Human recombinant MMP-9, on Human recombinant MMP-1 and at Human recombinant MMP-14 were 1.77 µM, > 10 µM and > 10 µM, respectively.

`CCCc1ccc(COc2ccc(S(=O)(=O)C3(C(=O)NO)CCOCC3)cc2)cn1` [Example 550]: the results for the Ki at Human recombinant MMP-9, on Human recombinant MMP-1 and on Human recombinant MMP-14 were 0.00751 µM, > 10 µM and 2.18 µM, respectively.

Consider `CCCCc1ccc(COc2ccc(S(=O)(=O)C3(C(=O)NO)CCOCC3)cc2)cn1` [Example 551], for which the inhibition constant (Ki) is 0.0482 µM on Human recombinant MMP-9, > 10 µM at Human recombinant MMP-1 and 2.06 µM at Human recombinant MMP-14.

Regarding `CCc1ccc(COc2ccc(S(=O)(=O)C3(C(=O)NO)CCOCC3)cc2)cn1` [Example 552], the Ki on Human recombinant MMP-9 was 0.00222 µM; at Human recombinant MMP-1, > 10 µM; at Human recombinant MMP-14 it was 2.44 µM.

`COCCN1CCC(C(=O)NO)(S(=O)(=O)c2ccc(OCCNC(=O)c3cc4ccccc4o3)cc2)CC1` [Example 553]: the Ki was 0.0712 µM at Human recombinant MMP-9, > 10 µM on Human recombinant MMP-1 and 2.26 µM at Human recombinant MMP-14.

Regarding `O=C(NO)C1(S(=O)(=O)c2ccc(OCCOc3cncnc3)cc2)CCOCC1` [Example 554], the Ki was 0.442 µM at Human recombinant MMP-9, > 10 µM at Human recombinant MMP-1 and > 10 µM at Human recombinant MMP-14.

`O=C(NO)C1(S(=O)(=O)c2ccc(OCCCOCc3ccncc3)cc2)CCOCC1` [Example 555]: the Ki on Human recombinant MMP-9 was 0.05 µM; on Human recombinant MMP-1, > 10 µM; at Human recombinant MMP-14, 0.689 µM.

As to `O=C(NO)C1(S(=O)(=O)c2ccc(OCCc3ccccn3)cc2)CCOCC1` [Example 556], the Ki at Human recombinant MMP-9 was found to be 0.212 µM; at Human recombinant MMP-1 it was 8.97 µM; at Human recombinant MMP-14 it was 3.5 µM.

Turning to `O=C(NO)C1(S(=O)(=O)c2ccc(OCCc3cccnc3)cc2)CCOCC1` [Example 557], the inhibitory constant (Ki) on Human recombinant MMP-9 is 0.0336 µM; at Human recombinant MMP-1, > 10 µM; at Human recombinant MMP-14 it was 0.0522 µM.

For the compound `O=C(NO)C1(S(=O)(=O)c2ccc(OCCCOc3cncnc3)cc2)CCOCC1` [Example 559], the inhibitory constant (Ki) was 0.0576 µM at Human recombinant MMP-9, > 10 µM on Human recombinant MMP-1 and 0.845 µM on Human recombinant MMP-14.

`O=C(NO)C1(S(=O)(=O)c2ccc(OCCCOc3cccnc3)cc2)CCOCC1` [Example 560]: the values for the Ki at Human recombinant MMP-9, at Human recombinant MMP-1 and on Human recombinant MMP-14 were 0.00717 µM, > 10 µM and 0.549 µM, respectively.

As to `O=C(NCCOc1ccc(S(=O)(=O)C2(C(=O)NO)CCOCC2)cc1)c1c[nH]c2ccccc12` [Example 562], the inhibitory constant (Ki) on Human recombinant MMP-9 turned out to be 0.786 µM; on Human recombinant MMP-1 it was 2.74 µM; at Human recombinant MMP-14, 9.27 µM.

On to `O=C(NCCSc1ccc(S(=O)(=O)C2(C(=O)NO)CCOCC2)cc1)c1nc2ccccc2s1` [Example 598], for which the Ki on Human recombinant MMP-9 is 0.705 µM; at Human recombinant MMP-1 it was > 10 µM; on Human recombinant MMP-14, > 10 µM.

The values are drawn from patent publication US20040024024A1, “Aromatic sulfone hydroxamates and their use as protease inhibitors” (priority 2001, published 2004).
